Tests used:
Type in all cases: in vivo, mouse
total myostatin in serum = assay: Circulating total myostatin in serum (acidification ELISA), dexamethasone model; details: as compared to apitegromab
Description: Briefly, serum samples were acidified at low pH (e.g., pH ˜2.5) to dissociate the bound antibody from the immune complex and to convert all myostatin in the sample to the active form of growth factor (i.e., mature myostatin). Samples were then neutralized and assayed for the presence of mature myostatin on ELISA plates coated with anti-mature myostatin antibodies as capture reagents.

circulating leptin = assay: Circulating leptin (U-PLEX Metabolic Hormones Combo 1), Example 6; details: for Leptin Day 64 (circulating leptin): 60%/45% high fat diet
Description: Circulating leptin was measured using the U-PLEX Metabolic Hormones Combo 1 (mouse) according to manufacturer's instructions (Meso Scale Diagnostics, #K15306K-2). As expected, circulating leptin was higher in animals fed the high fat diet than animals fed a standard chow.

[1] = tested on: male C57/BL6 mice on high fat diet; assay: Diet-induced obesity model, semaglutide with Ab109, withdrawal and continuous arms (Example 6); details: for Relative Fat Mass Day 63 (% Body Fat): 60%/45% high fat diet
Description: Male C57/BL6 male mice (n=8/group) were either fed regular mouse chow (Group 1) or placed on a 60% high fat diet at six weeks of age and maintained on the 60% high fat diet until 21 weeks of age (Groups 2-8), at which time the study began (day 0). On day 0, animals in groups 2-8 were switched to a 45% high fat diet and maintained on the 45% high fat diet until the animals were terminated. […] Body weight was measured three times per week and qNMR measurements of lean mass and fat mass were obtained on the days set forth.
Animals in groups 3 and 4 were dosed with semaglutide weekly for 14 days, then terminated. Animals in groups 5 and 6 (weight regain groups), were treated with semaglutide for 35 days, then the semaglutide treatment was ended while the myostatin activation inhibiting antibody treatment continued until the animals were terminated on day 63. The animals in Groups 7 and 8 were treated with semaglutide for 63 days, i.e., they remained on semaglutide until the study terminated on day 63.
At termination, left and right gastrocnemius muscles were removed and frozen; the liver was weighed, one lobe was fixed, and the remainder was frozen; epididymal adipose tissue was removed and weighed; subcutaneous adipose tissue was removed and weighed; and a terminal serum bleed was obtained.

[2] = tested on: male C57/BL6 mice on high fat diet; assay: Diet-induced obesity model, Ab109 with 0.01 or 0.04 mg/kg semaglutide (Example 9); details: for loss in quadriceps weight: FIG. 21A
Description: Male C57/BL6 male mice (n=8/group) were placed on a 60% high fat diet at ˜6 weeks of age and maintained on the 60% high fat diet until 21 weeks of age (Groups 1-12), at which time the study began (day −7). On day −7, animals in groups 1-12 were switched to a 45% high fat diet and maintained on the 45% high fat diet until the animals were terminated. […] Body weight was measured three times per week and qNMR measurements of lean mass and fat mass were obtained pre-dose on day 0 and on days 7, 14 and 21. Fasting glucose was measured on day 18 after a 4 hour fast.
Animals in groups 3-12 were dosed with semaglutide daily for 3 weeks, then terminated. Animals in groups 1, 3, and 4 were treated with IgG control antibody, and those in groups 2, 5-12 were treated with myostatin activation inhibiting antibody treatment, for 3 weeks.
At termination, left gastrocnemius and quadriceps muscles were removed and frozen; the liver was weighed, one lobe was frozen; epididymal (perigonadal) adipose tissue was removed and weighed; inguinal (subcutaneous) adipose tissue was removed and weighed; and a terminal serum bleed was obtained.

[3] = semaglutide 0.04 mg/kg day 7-35 (regain arm) with control hIgG
[4] = semaglutide 0.04 mg/kg day 7-63 with control hIgG
[5] = semaglutide 0.04 mg/kg and hIgG

Substance	accumulation of total or latent myostatin in serum samples from dosed subjects (total myostatin in serum)	Leptin Day 64 (circulating leptin) (circulating leptin; [3])	Leptin Day 64 (circulating leptin) (circulating leptin; [4])	circulating leptin (circulating leptin; treatment arm as in the words, FIG. 14K)	Relative Fat Mass Day 63 (% Body Fat) [1, 3]	Relative Fat Mass Day 63 (% Body Fat) [1, 4]	lean mass lost while on semaglutide [1, 5]	net loss of lean mass at the end of the study [1, 5]	fat mass ([1]; semaglutide 0.04 mg/kg, FIG. 14D)	loss in lean mass ([2]; 0.01 mg/kg semaglutide, FIG. 20B)	lean mass lost ([2]; 0.04 mg/kg semaglutide and hIgG, 3 weeks, FIG. 20A)	loss in quadriceps weight ([2]; semaglutide high dose (0.04 mg/kg))	loss in quadriceps weight ([2]; semaglutide low dose (0.01 mg/kg))
apitegromab: prior art myostatin-selective activation inhibitor antibody targeting pro/latent myostatin [reference compound]	increased accumulation	–	–	–	–	–	–	–	–	–	–	–	–
semaglutide [reference compound]	–	37.87 ng/mL	6.357 ng/mL	Continuous semaglutide administration lowered circulating leptin	28.69 % Body Fat	14.84 % Body Fat	about 4%	2.5%	induced fat mass loss	4.7%	about 9.5%	−7.6%	−4.8%
